Measured values reported in patent US11987578B1, “7-(4-((5-(2-chlorobenzylideneamino)-2-thioxo-1,3,4-thiadiazol-3(2H)-yl)methyl)piperazin-1-yl)-1-cyclopropyl-6-fluoro-4-oxo-1,4-dihydroquinoline-3-carboxylic acid as an anti-inflammatory compound” (KING FAISAL UNIVERSITY, priority 2023, dated 2024).
Like-named read-outs stand apart in the source and are kept apart here.

Columns and labels:
Bovine Serum Albumin = Bovine Serum Albumin (Bos taurus, UniProt P02769); assay: Bovine Serum Albumin Assay (BSA), inhibition of heat-induced protein denaturation; format: biochemical
Sequence of Bovine Serum Albumin (P02769 25-607): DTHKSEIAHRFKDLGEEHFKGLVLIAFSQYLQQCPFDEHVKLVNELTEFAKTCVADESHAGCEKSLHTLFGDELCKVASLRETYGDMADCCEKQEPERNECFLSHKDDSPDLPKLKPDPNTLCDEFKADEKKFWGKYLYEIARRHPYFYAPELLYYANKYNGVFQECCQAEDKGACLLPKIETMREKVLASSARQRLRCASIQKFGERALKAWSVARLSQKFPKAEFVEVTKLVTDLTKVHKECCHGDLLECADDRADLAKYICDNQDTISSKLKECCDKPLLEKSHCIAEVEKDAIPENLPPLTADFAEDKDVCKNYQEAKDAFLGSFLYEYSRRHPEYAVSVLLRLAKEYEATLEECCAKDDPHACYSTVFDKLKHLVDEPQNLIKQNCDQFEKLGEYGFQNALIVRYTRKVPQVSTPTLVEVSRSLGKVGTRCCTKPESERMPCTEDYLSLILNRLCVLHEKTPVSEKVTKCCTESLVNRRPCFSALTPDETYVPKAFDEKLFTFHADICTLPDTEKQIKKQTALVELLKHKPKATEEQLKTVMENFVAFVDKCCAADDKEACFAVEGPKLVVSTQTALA
Protocol: Bovine Serum Albumin Assay (BSA) In vitro-inflammatory activities of the tested samples were determined using a modified method of the BSA assay reported by Williams et al. BSA solution (0.4%, w/v) was prepared in Tris Buffered Saline. The pH was adjusted to 6.4 with glacial acetic acid. Different dilutions of 20, 40, 60, 80, and 100 μg/mL of 7-(4-((5-(2-chlorobenzylideneamino)-2-thioxo-1,3,4-thiadiazol-3(2H)-yl)methyl)piperazin-1-yl)-1-cyclopropyl-6-fluoro-4-oxo-1,4-dihydroquinoline-3-carboxylic acid stock solutions were added to test tubes containing 1 mL of 0.4%, w/v BSA buffer solution. Both negative (solvent) and positive (aspirin) controls were assayed in a similar manner. The solutions were then heated in a water bath at 72° C. for 10 minutes and cooled for 20 minutes under laboratory conditions. The turbidity of the solutions (level of protein precipitation) was measured at 660 nm in Spectrophotometer (V-770 UV-Visible/NIR Spectrophotometer). The percentage inhibition of precipitation (protein denaturation) was determined relative to the negative control using the following equation: [formula]

| in vitro anti-inflammatory activity (Bovine Serum Albumin; BSA assay, result in words) | inhibition at 100 µg/mL (Bovine Serum Albumin; pH 6.4, read-out: percentage inhibition of precipitation (protein denaturation)) [%] | melting point [°C] | inhibition at 100 µg/mL (Bovine Serum Albumin; 100 μg/ml, 0.4% w/v BSA, pH 6.4, 72° C. for 10 minutes, turbidity at 660 nm, relative to negative control, read-out: percentage inhibition of precipitation (protein denaturation)) [%] | Structure (SMILES) |
| --- | --- | --- | --- | --- |
| considerable anti-inflammatory effect | 90.2 | 207 to 209 |  | O=C(O)c1cn(C2CC2)c2cc(N3CCN(Cn4nc(/N=C/c5ccccc5Cl)sc4=S)CC3)c(F)cc2c1=O [7-(4-((5-(2-chlorobenzylideneamino)-2-thioxo-1,3,4-thiadiazol-3(2H)-yl)methyl)piperazin-1-yl)-1-cyclopropyl-6-fluoro-4-oxo-1,4-dihydroquinoline-3-carboxylic acid] |
|  |  |  | 96.8 | CC(=O)Oc1ccccc1C(=O)O [aspirin, reference compound] |
